According to PubChem BioAssay (NCI):
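Exposure lasted 48 hours, with cells grown in 96-well plates and compounds tested at five concentrations. At the GI50, growth is halved. TGI denotes the concentration required for complete inhibition of growth.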

Legend:
Assay in all cases: inhibition of tumour cell growth, NCI panel, 48 h
SNB-75 CNS = test system: SNB-75 CNS
SK-MEL-28 melanoma = test system: SK-MEL-28 melanoma
SF-539 CNS = test system: SF-539 CNS
PC-3 prostate = test system: PC-3 prostate
SNB-19 CNS = test system: SNB-19 CNS
NCI-H522 lung = test system: NCI-H522 lung
RXF 393 renal = test system: RXF 393 renal
NCI-H460 lung = test system: NCI-H460 lung
SK-MEL-2 melanoma = test system: SK-MEL-2 melanoma
EKVX NSCLC = test system: EKVX NSCLC
HCT-116 colon = test system: HCT-116 colon
NCI-H23 lung = test system: NCI-H23 lung
SK-OV-3 ovarian = test system: SK-OV-3 ovarian
SN12C renal = test system: SN12C renal
CAKI-1 renal = test system: CAKI-1 renal
TK-10 renal = test system: TK-10 renal
T-47D breast = test system: T-47D breast
OVCAR-8 ovarian = test system: OVCAR-8 ovarian
OVCAR-3 ovarian = test system: OVCAR-3 ovarian
HOP-62 NSCLC = test system: HOP-62 NSCLC
786-0 renal = test system: 786-0 renal
HOP-92 NSCLC = test system: HOP-92 NSCLC
UACC-257 melanoma = test system: UACC-257 melanoma
M14 melanoma = test system: M14 melanoma
DU-145 prostate = test system: DU-145 prostate
SK-MEL-5 melanoma = test system: SK-MEL-5 melanoma
SF-295 CNS = test system: SF-295 CNS
ACHN renal = test system: ACHN renal
OVCAR-4 ovarian = test system: OVCAR-4 ovarian
HCT-15 colon = test system: HCT-15 colon
SF-268 CNS = test system: SF-268 CNS
HCC-2998 colon = test system: HCC-2998 colon
U251 CNS = test system: U251 CNS
MCF7 breast = test system: MCF7 breast
UO-31 renal = test system: UO-31 renal
K-562 leukemia = test system: K-562 leukemia
NCI-H226 lung = test system: NCI-H226 lung
UACC-62 melanoma = test system: UACC-62 melanoma
NCI/ADR-RES ovarian = test system: NCI/ADR-RES ovarian
MOLT-4 leukemia = test system: MOLT-4 leukemia
MDA-MB-231 breast = test system: MDA-MB-231 breast
OVCAR-5 ovarian = test system: OVCAR-5 ovarian
SR leukemia = test system: SR leukemia
HL-60(TB) leukemia = test system: HL-60(TB) leukemia
MDA-MB-435 = test system: MDA-MB-435
A549 NSCLC = test system: A549 NSCLC
SW-620 colon = test system: SW-620 colon
IGROV1 ovarian = test system: IGROV1 ovarian
LOX IMVI melanoma = test system: LOX IMVI melanoma
KM12 colon = test system: KM12 colon
HT29 colon = test system: HT29 colon
RPMI-8226 leukemia = test system: RPMI-8226 leukemia
CCRF-CEM leukemia = test system: CCRF-CEM leukemia

CCC1C(C)C=NN1c1nc(N)nc(C(C#N)=Nc2ccc(N(C)C)cc2)n1 (stereo unspecified)
GI50 (SNB-75 CNS): 8.95 µM
TGI (SNB-75 CNS): 22.6 µM
GI50 (SK-MEL-28 melanoma): 8.61 µM
TGI (SK-MEL-28 melanoma): 18.4 µM
GI50 (SF-539 CNS): 1.03 µM
TGI (SF-539 CNS): 5.97 µM
GI50 (PC-3 prostate): 2.53 µM
TGI (PC-3 prostate): 10.1 µM
GI50 (SNB-19 CNS): > 50 µM
TGI (SNB-19 CNS): > 50 µM
GI50 (NCI-H522 lung): > 50 µM
TGI (NCI-H522 lung): > 50 µM
GI50 (RXF 393 renal): 10.3 µM
TGI (RXF 393 renal): 24 µM
GI50 (NCI-H460 lung): 11.1 µM
TGI (NCI-H460 lung): 24.5 µM
GI50 (SK-MEL-2 melanoma): 32.2 µM
TGI (SK-MEL-2 melanoma): > 50 µM
GI50 (EKVX NSCLC): 11.3 µM
TGI (EKVX NSCLC): 32.2 µM
GI50 (HCT-116 colon): 16.5 µM
TGI (HCT-116 colon): > 50 µM
GI50 (NCI-H23 lung): 13.8 µM
TGI (NCI-H23 lung): > 50 µM
GI50 (SK-OV-3 ovarian): 9.32 µM
TGI (SK-OV-3 ovarian): 17.8 µM
GI50 (SN12C renal): 9.76 µM
TGI (SN12C renal): 18.9 µM
GI50 (CAKI-1 renal): 9.06 µM
TGI (CAKI-1 renal): 20.8 µM
GI50 (TK-10 renal): 10.6 µM
TGI (TK-10 renal): 18.9 µM
GI50 (T-47D breast): 23.5 µM
TGI (T-47D breast): > 50 µM
GI50 (OVCAR-8 ovarian): 10.6 µM
TGI (OVCAR-8 ovarian): 31 µM
GI50 (OVCAR-3 ovarian): 10.1 µM
TGI (OVCAR-3 ovarian): 21.8 µM
GI50 (HOP-62 NSCLC): 18.8 µM
TGI (HOP-62 NSCLC): > 50 µM
GI50 (786-0 renal): 17.4 µM
TGI (786-0 renal): > 50 µM
GI50 (HOP-92 NSCLC): 12.1 µM
TGI (HOP-92 NSCLC): > 50 µM
GI50 (UACC-257 melanoma): > 50 µM
TGI (UACC-257 melanoma): > 50 µM
GI50 (M14 melanoma): 9.11 µM
TGI (M14 melanoma): 16.5 µM
GI50 (DU-145 prostate): 9.32 µM
TGI (DU-145 prostate): 17.4 µM
GI50 (SK-MEL-5 melanoma): 9.09 µM
TGI (SK-MEL-5 melanoma): 17.1 µM
GI50 (SF-295 CNS): 8.96 µM
TGI (SF-295 CNS): 16.1 µM
GI50 (ACHN renal): 9.17 µM
TGI (ACHN renal): 17.1 µM
GI50 (OVCAR-4 ovarian): 16.3 µM
TGI (OVCAR-4 ovarian): > 50 µM
GI50 (HCT-15 colon): 15.6 µM
TGI (HCT-15 colon): > 50 µM
GI50 (SF-268 CNS): 10.6 µM
TGI (SF-268 CNS): 23.2 µM
GI50 (HCC-2998 colon): 9.93 µM
TGI (HCC-2998 colon): 19.6 µM
GI50 (U251 CNS): 8.93 µM
TGI (U251 CNS): 16.8 µM
GI50 (MCF7 breast): 9.76 µM
TGI (MCF7 breast): 17.8 µM
GI50 (UO-31 renal): 15.1 µM
TGI (UO-31 renal): > 50 µM
GI50 (K-562 leukemia): 2.73 µM
TGI (K-562 leukemia): > 50 µM
GI50 (NCI-H226 lung): 10.8 µM
TGI (NCI-H226 lung): 28.8 µM
GI50 (UACC-62 melanoma): 14.6 µM
TGI (UACC-62 melanoma): > 50 µM
GI50 (NCI/ADR-RES ovarian): 9.88 µM
TGI (NCI/ADR-RES ovarian): 22 µM
GI50 (MOLT-4 leukemia): 21.6 µM
TGI (MOLT-4 leukemia): > 50 µM
GI50 (MDA-MB-231 breast): 11.4 µM
TGI (MDA-MB-231 breast): 30.9 µM
GI50 (OVCAR-5 ovarian): 10.2 µM
TGI (OVCAR-5 ovarian): 26.6 µM
GI50 (SR leukemia): 9.56 µM
TGI (SR leukemia): > 50 µM
GI50 (HL-60(TB) leukemia): 7.62 µM
TGI (HL-60(TB) leukemia): > 50 µM
GI50 (MDA-MB-435): 16.7 µM
TGI (MDA-MB-435): > 50 µM
GI50 (A549 NSCLC): 33.9 µM
TGI (A549 NSCLC): > 50 µM
GI50 (SW-620 colon): 12.1 µM
TGI (SW-620 colon): 26.8 µM
GI50 (IGROV1 ovarian): 30.9 µM
TGI (IGROV1 ovarian): > 50 µM
GI50 (LOX IMVI melanoma): 8.53 µM
TGI (LOX IMVI melanoma): 15.7 µM
GI50 (KM12 colon): 9.85 µM
TGI (KM12 colon): 18.6 µM
GI50 (HT29 colon): 16.5 µM
TGI (HT29 colon): > 50 µM
GI50 (RPMI-8226 leukemia): 2.55 µM
TGI (RPMI-8226 leukemia): > 50 µM
GI50 (CCRF-CEM leukemia): 6.11 µM
TGI (CCRF-CEM leukemia): 20.4 µM
